Data: article PMC3221803 (Journal of neuroscience methods, 2011)
Values joined by “and” are separate entries in the source; they are usually repeats but may differ in a detail not shown here. Equal entries are not always repeated. Where two headings read alike, the source gives them in different places.

Key:
hNET [1] = molecular target: T1, hNET (Homo sapiens, UniProt P23975); test: biochemical; assay type: binding
hNET [2] = molecular target: T1, hNET; conditions: read-out: IC50 for inhibition of [^3H]NE uptake; ref Eshleman et al., 1999; cited from earlier work
hNET [3] = molecular target: T1, hNET; conditions: intact cells, 25°C

T1 sequence (P23975 whole entry): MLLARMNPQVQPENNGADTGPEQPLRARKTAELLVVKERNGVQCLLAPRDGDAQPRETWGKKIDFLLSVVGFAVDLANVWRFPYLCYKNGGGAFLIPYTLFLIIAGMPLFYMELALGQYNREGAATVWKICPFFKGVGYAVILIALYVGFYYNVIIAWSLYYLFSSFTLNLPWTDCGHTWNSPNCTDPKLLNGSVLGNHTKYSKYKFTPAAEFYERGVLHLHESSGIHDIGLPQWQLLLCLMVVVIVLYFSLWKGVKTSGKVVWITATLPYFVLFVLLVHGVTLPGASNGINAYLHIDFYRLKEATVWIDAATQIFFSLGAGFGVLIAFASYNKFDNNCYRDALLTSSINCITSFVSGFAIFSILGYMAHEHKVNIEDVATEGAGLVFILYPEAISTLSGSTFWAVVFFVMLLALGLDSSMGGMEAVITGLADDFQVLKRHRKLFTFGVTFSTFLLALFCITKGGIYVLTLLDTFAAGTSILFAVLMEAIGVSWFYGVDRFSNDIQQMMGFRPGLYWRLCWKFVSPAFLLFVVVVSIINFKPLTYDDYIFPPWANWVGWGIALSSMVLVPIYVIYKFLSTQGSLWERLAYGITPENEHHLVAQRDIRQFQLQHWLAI

Compound	Potency in inhibiting [^3H]CFT binding relative to [^3H]NE uptake (Ki ratio) (hNET [1])	IC50 (hNET [2])	Time to maximal [^3H]CFT binding (hNET [3])	Time to maximal [^3H]CFT binding (hNET [1])	Kd (hNET [1]; Kd of CFT)	Kd (hNET [1]; Kd of [^3H]CFT binding)
OC1(c2ccc(Cl)cc2)c2ccccc2C2=NCCN21 (stereo not shown) [mazindol]	weaker					
CN1[C@@H]2CC[C@H]1C[C@@H](OC(c1ccccc1)c1ccccc1)C2 [benztropine]	equipotent					
COC(=O)[C@H]1[C@@H](c2ccc(F)cc2)C[C@@H]2CC[C@H]1N2C [CFT, 2β-carbomethoxy-3β-(4-fluorophenyl)-tropane]		33.3 nM	15 min	15 min	18 ± 5 nM	35.7 nM and 22.1 nM and 34.5 nM
